Data taken from ChEMBL document CHEMBL3817725, “Design, synthesis, and biological evaluation of a novel series of peripheral-selective noradrenaline reuptake inhibitors - Part 3” (Bioorg Med Chem, 2016).

Key:
Homo sapiens [1] = organism: Homo sapiens; assay: Selectivity ratio of IC50 for human SERT to IC50 for human NET
[2] = molecular target: Sodium-dependent dopamine transporter (Homo sapiens, UniProt Q01959); assay: Inhibition of human DAT expressed in CHO cells assessed as [3H]-dopamine reuptake incubated for 60 mins measured after 30 mins by topcount method; assay type: cell-based
Homo sapiens [3] = organism: Homo sapiens; assay: Selectivity ratio of IC50 for human DAT to IC50 for human NET
[4] = molecular target: Sodium-dependent serotonin transporter (Homo sapiens, UniProt P31645); assay: Inhibition of human SERT expressed in CHO cells assessed as [3H]-5-hydroxytryptamine reuptake incubated for 20 mins measured after 30 mins by topcount method; assay type: cell-based
[5] = molecular target: Sodium-dependent noradrenaline transporter (Homo sapiens, UniProt P23975); assay: Inhibition of human NET expressed in CHO cells assessed as [3H]-Norepinephrine reuptake incubated for 45 mins measured after 30 mins by topcount method; assay type: cell-based
[6] = Dissociation constant, pKa of the compound; assay type: physicochemical
MDR1 = assay: Efflux ratio of apparent permeability from basolateral to apical side over apical to basolateral side in pig LLC-PK1 cells expressing human MDR1 at 10 umol/l after 2 hrs by LC/MS/MS analysis; assay type: ADME, cell-based, Sus scrofa
[7] = Oral bioavailability in Crl:CD(SD)(IGS) rat at 1 mg/kg administered via cassette dosing by LC/MS/MS analysis; assay type: ADME, organism-based; settings: in vivo
Rattus norvegicus [8] = assay: Ex vivo occupancy at NET in Sprague-Dawley rat brain cortex assessed as inhibition of [3H]-nisoxetine binding at 3 mg/kg, iv measured after 1 hr by scintillation counting method; assay type: functional
[9] = Mean residence time in Crl:CD(SD)(IGS) rat at 1 mg/kg, po administered via cassette dosing by LC/MS/MS analysis; assay type: ADME, organism-based; settings: in vivo
[10] = AUC in Crl:CD(SD)(IGS) rat at 1 mg/kg, po administered via cassette dosing by LC/MS/MS analysis; assay type: ADME, organism-based; settings: in vivo
[11] = Cmax in Crl:CD(SD)(IGS) rat at 1 mg/kg, po administered via cassette dosing by LC/MS/MS analysis; assay type: ADME, organism-based; parameters: dose 1 mg/kg, route oral; settings: in vivo
Rattus norvegicus [12] = assay: Increase in urethral resistance in po dosed rat assessed as increase in leak point pressure after 15 mins to 4 hrs by Evans blue dye leakage based assay; assay type: functional, organism-based; settings: Urethra

Chain of Sodium-dependent serotonin transporter (P31645 whole entry): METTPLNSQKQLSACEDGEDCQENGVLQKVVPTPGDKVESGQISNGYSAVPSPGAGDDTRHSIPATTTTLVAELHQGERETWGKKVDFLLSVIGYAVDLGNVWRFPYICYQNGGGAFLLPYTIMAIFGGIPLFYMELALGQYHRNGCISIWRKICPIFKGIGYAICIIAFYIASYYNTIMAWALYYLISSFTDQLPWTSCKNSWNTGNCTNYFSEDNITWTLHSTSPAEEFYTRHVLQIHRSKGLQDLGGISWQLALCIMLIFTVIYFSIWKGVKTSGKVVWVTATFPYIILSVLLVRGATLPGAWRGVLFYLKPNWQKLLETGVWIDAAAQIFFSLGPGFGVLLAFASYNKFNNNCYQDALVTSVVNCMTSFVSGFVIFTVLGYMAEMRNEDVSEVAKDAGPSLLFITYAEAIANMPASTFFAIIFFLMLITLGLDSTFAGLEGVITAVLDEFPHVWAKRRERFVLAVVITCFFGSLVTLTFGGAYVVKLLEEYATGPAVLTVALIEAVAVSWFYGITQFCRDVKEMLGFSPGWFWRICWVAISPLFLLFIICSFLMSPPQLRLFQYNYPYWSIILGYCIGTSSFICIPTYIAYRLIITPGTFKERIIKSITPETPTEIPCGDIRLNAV
Chain of Sodium-dependent dopamine transporter (Q01959 whole entry): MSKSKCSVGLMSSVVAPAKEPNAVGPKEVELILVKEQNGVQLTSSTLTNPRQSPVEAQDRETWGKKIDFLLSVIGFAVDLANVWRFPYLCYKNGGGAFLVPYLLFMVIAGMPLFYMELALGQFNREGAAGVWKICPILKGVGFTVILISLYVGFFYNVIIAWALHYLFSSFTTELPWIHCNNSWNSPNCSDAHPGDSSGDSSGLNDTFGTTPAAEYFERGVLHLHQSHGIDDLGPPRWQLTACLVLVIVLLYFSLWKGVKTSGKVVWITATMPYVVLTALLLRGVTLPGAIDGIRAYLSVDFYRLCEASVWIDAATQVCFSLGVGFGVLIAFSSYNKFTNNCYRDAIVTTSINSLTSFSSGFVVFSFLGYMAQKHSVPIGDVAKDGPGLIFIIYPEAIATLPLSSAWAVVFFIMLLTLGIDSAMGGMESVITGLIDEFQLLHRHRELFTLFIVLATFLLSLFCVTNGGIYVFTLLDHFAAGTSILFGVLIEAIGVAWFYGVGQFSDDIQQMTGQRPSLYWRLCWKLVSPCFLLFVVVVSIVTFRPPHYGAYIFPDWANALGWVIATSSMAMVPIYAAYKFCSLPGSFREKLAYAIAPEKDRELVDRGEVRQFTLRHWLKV
Chain of Sodium-dependent noradrenaline transporter (P23975 whole entry): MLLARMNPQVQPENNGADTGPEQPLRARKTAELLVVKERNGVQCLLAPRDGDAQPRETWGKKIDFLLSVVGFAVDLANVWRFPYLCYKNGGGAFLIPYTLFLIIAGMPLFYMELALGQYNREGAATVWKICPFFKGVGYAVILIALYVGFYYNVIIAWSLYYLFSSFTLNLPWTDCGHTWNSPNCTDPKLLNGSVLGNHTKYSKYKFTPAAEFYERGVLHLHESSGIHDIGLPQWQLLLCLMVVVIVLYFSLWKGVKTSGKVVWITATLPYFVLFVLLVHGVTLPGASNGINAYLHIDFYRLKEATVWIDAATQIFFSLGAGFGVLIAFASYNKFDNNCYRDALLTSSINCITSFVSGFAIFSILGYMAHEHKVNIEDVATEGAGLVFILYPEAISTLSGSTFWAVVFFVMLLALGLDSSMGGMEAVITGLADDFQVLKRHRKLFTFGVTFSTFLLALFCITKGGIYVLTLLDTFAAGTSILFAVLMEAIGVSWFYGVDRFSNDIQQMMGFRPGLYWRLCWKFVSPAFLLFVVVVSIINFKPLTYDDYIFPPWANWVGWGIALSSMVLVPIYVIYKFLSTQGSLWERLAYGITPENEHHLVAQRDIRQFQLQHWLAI

**Q.** With `CC(=O)NC[C@@H]1CNCCO[C@H]1c1ccc(Cl)c(F)c1` as the molecule, how does the Ratio IC50 (Homo sapiens [1]) read?
**A.** The Ratio IC50 was over 440.

**Q.** And the IC50 [2]?
**A.** Its IC50 is over 1000 nM.

**Q.** And the Ratio IC50 (Homo sapiens [3])?
**A.** The Ratio IC50 was over 440.

**Q.** What about the IC50 [4] of the same molecule?
**A.** The IC50 was over 1000 nM.

**Q.** With `Cl.O=c1[nH]c(-c2cccc(=O)n2C[C@@H]2CNCCO[C@H]2c2ccc(Cl)c(F)c2)no1` as the molecule, how does the IC50 [5] read?
**A.** Its IC50 is 100 nM.

**Q.** And the IC50 [2]?
**A.** Its IC50 is over 1000 nM.

**Q.** And the IC50 [4]?
**A.** Its IC50 is over 1000 nM.

**Q.** And the pKa [6]?
**A.** The pKa was 6.35.

**Q.** What about the efflux ratio at 2 h, 10 µM (MDR1) of the same molecule?
**A.** Its efflux ratio at 2 h, 10 µM is 0.6.

**Q.** What does the source list for `Cl.O=c1c(-c2nnn[nH]2)cccn1C[C@@H]1CNCCO[C@H]1c1ccc(Cl)c(F)c1`?
**A.** IC50 [5]: 1.4 nM; bioavailability [7]: 8%; IC50 [2]: > 1000 nM; IC50 [4]: 730 nM; Occ (Rattus norvegicus [8]): 12%; pKa [6]: 3.88; MRT [9]: 2 h; AUC [10]: 44 ng·h/mL; efflux ratio at 2 h, 10 µM (MDR1): 1.7; Cmax [11]: 16.2 ng/mL

**Q.** For `Cl.O=C(O)c1cccn(C[C@@H]2CNCCO[C@H]2c2ccc(Cl)c(F)c2)c1=O`, which IC50 [5] is on record?
**A.** The IC50 was 1.1 nM.

**Q.** What about the bioavailability [7] of the same molecule?
**A.** Its bioavailability is 41%.

**Q.** What about the IC50 [2] of the same molecule?
**A.** Its IC50 is over 1000 nM.

**Q.** And the Activity (Rattus norvegicus [12])?
**A.** Its Activity is “Dose-dependent effect”.

**Q.** What about the IC50 [4] of the same molecule?
**A.** Its IC50 is over 1000 nM.

**Q.** And the Occ (Rattus norvegicus [8])?
**A.** The Occ was 14%.

**Q.** What about the pKa [6] of the same molecule?
**A.** Its pKa is 2.58.

**Q.** What about the MRT [9] of the same molecule?
**A.** Its MRT is 1.9 h.

**Q.** And the AUC [10]?
**A.** Its AUC is 197 ng·h/mL.

**Q.** And the efflux ratio at 2 h, 10 µM (MDR1)?
**A.** Its efflux ratio at 2 h, 10 µM is 2.1.

**Q.** And the Cmax [11]?
**A.** Its Cmax is 93.8 ng/mL.

**Q.** With `Cl.O=c1[nH]c(-c2cccn(C[C@@H]3CNCCO[C@H]3c3ccc(Cl)c(F)c3)c2=O)no1` as the molecule, how does the IC50 [5] read?
**A.** Its IC50 is 1 nM.

**Q.** And the bioavailability [7]?
**A.** The bioavailability was 12%.

**Q.** What about the IC50 [2] of the same molecule?
**A.** Its IC50 is over 1000 nM.

**Q.** And the IC50 [4]?
**A.** The IC50 was 380 nM.

**Q.** What about the Occ (Rattus norvegicus [8]) of the same molecule?
**A.** Its Occ is 28.4%.

**Q.** And the pKa [6]?
**A.** The pKa was 5.45.

**Q.** And the MRT [9]?
**A.** Its MRT is 1.5 h.

**Q.** And the AUC [10]?
**A.** The AUC was 38.9 ng·h/mL.

**Q.** And the efflux ratio at 2 h, 10 µM (MDR1)?
**A.** The efflux ratio at 2 h, 10 µM was 1.9.

**Q.** And the Cmax [11]?
**A.** Its Cmax is 17.2 ng/mL.

**Q.** For `O=c1cccnn1C[C@@H]1CNCCO[C@H]1c1ccc(Cl)c(F)c1`, which Ratio IC50 (Homo sapiens [1]) is on record?
**A.** Its Ratio IC50 is 1200.

**Q.** And the IC50 [5]?
**A.** Its IC50 is 0.065 nM.

**Q.** What about the IC50 [2] of the same molecule?
**A.** The IC50 was 240 nM.

**Q.** What about the Ratio IC50 (Homo sapiens [3]) of the same molecule?
**A.** Its Ratio IC50 is 3600.

**Q.** What about the IC50 [4] of the same molecule?
**A.** The IC50 was 79 nM.

**Q.** Which IC50 [5] does the source give for `Cl.O=c1[nH]c(-c2ccc(=O)n(C[C@@H]3CNCCO[C@H]3c3ccc(Cl)c(F)c3)c2)no1` here?
**A.** Its IC50 is 25 nM.

**Q.** And the IC50 [2]?
**A.** Its IC50 is over 1000 nM.

**Q.** What about the IC50 [4] of the same molecule?
**A.** Its IC50 is over 1000 nM.

**Q.** And the pKa [6]?
**A.** The pKa was 5.72.

**Q.** And the efflux ratio at 2 h, 10 µM (MDR1)?
**A.** The efflux ratio at 2 h, 10 µM was 1.6.

**Q.** For `O=C1CCCN1C[C@@H]1CNCCO[C@H]1c1ccc(Cl)c(F)c1`, which Ratio IC50 (Homo sapiens [1]) is on record?
**A.** Its Ratio IC50 is 650.

**Q.** What about the IC50 [5] of the same molecule?
**A.** The IC50 was 0.13 nM.

**Q.** What about the IC50 [2] of the same molecule?
**A.** Its IC50 is 400 nM.

**Q.** What about the Ratio IC50 (Homo sapiens [3]) of the same molecule?
**A.** The Ratio IC50 was 3100.

**Q.** What about the IC50 [4] of the same molecule?
**A.** Its IC50 is 85 nM.

**Q.** For `O=C1NCCCN1C[C@@H]1CNCCO[C@H]1c1ccc(Cl)c(F)c1`, which Ratio IC50 (Homo sapiens [1]) is on record?
**A.** Its Ratio IC50 is 150.

**Q.** What about the IC50 [5] of the same molecule?
**A.** The IC50 was 0.08 nM.

**Q.** What about the IC50 [2] of the same molecule?
**A.** Its IC50 is 66 nM.

**Q.** What about the Ratio IC50 (Homo sapiens [3]) of the same molecule?
**A.** The Ratio IC50 was 820.

**Q.** And the IC50 [4]?
**A.** The IC50 was 12 nM.

**Q.** What does the source list for `Cl.O=c1ccccn1C[C@@H]1CNCCO[C@H]1c1ccc(Cl)c(F)c1`?
**A.** Ratio IC50 (Homo sapiens [1]): 1700; IC50 [5]: 0.079 nM; bioavailability [7]: 20%; IC50 [2]: > 1000 nM; Ratio IC50 (Homo sapiens [3]): > 13000; IC50 [4]: 130 nM; Occ (Rattus norvegicus [8]): 83.4%; MRT [9]: 2.1 h; AUC [10]: 107 ng·h/mL; Cmax [11]: 47.9 ng/mL

**Q.** With `COC(=O)c1cccn(C[C@@H]2CNCCO[C@H]2c2ccc(Cl)c(F)c2)c1=O.Cl` as the molecule, how does the IC50 [5] read?
**A.** Its IC50 is 0.21 nM.

**Q.** What about the IC50 [2] of the same molecule?
**A.** Its IC50 is over 1000 nM.

**Q.** What about the IC50 [4] of the same molecule?
**A.** The IC50 was 54 nM.

**Q.** And the efflux ratio at 2 h, 10 µM (MDR1)?
**A.** Its efflux ratio at 2 h, 10 µM is 7.8.

**Q.** Which results are given for `Cl.O=c1[nH]c(-c2ccn(C[C@@H]3CNCCO[C@H]3c3ccc(Cl)c(F)c3)c(=O)c2)no1`?
**A.** IC50 [5]: 1.9 nM; IC50 [2]: > 1000 nM; IC50 [4]: 120 nM; pKa [6]: 5.89; efflux ratio at 2 h, 10 µM (MDR1): > 0.8

**Q.** For `Cc1nnc(-c2cccn(C[C@@H]3CNCCO[C@H]3c3ccc(Cl)c(F)c3)c2=O)[nH]1.Cl`, which IC50 [5] is on record?
**A.** Its IC50 is 0.64 nM.

**Q.** And the IC50 [2]?
**A.** Its IC50 is over 1000 nM.

**Q.** What about the IC50 [4] of the same molecule?
**A.** Its IC50 is 67 nM.

**Q.** What about the pKa [6] of the same molecule?
**A.** Its pKa is 9.68.

**Q.** What about the efflux ratio at 2 h, 10 µM (MDR1) of the same molecule?
**A.** The efflux ratio at 2 h, 10 µM was 6.8.

**Q.** What does the source list for `O=C1CCCCN1C[C@@H]1CNCCO[C@H]1c1ccc(Cl)c(F)c1`?
**A.** Ratio IC50 (Homo sapiens [1]): 270; IC50 [5]: 0.1 nM; IC50 [2]: 130 nM; Ratio IC50 (Homo sapiens [3]): 1300; IC50 [4]: 27 nM
